Assay results as given in PubChem BioAssay AID2060485 (Molecular Pharmacology Branch, DTP, NCI, 2025).

Test system: A375 multi-cell spheroids with HUVEC/MSC, viability
Assay: Anticancer human tumor A375 cell line growth inhibition [GQUAD];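 note: spheroids exposed to compounds for seven days before readout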
Conditions: for IC50: curve of first compound; for viability, T/C: stronger effect = lower value
How it was run: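 Multi-cell-type spheroids of tumor cells with HUVEC and mesenchymal stem cells, treated with drug combinations. Concentrations descend in half-log steps from near clinical Cmax, or from 10 microM where Cmax is unknown; viability read-out.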

[1] = second compound 0.0316 µM, first compound 0.0316 µM
[2] = second compound 0.0316 µM, first compound 0.1 µM
[3] = second compound 0.0316 µM, first compound 0.316 µM
[4] = second compound 0.0316 µM, first compound 1 µM
[5] = second compound 0.0316 µM, first compound 3.16 µM
[6] = second compound 0.0316 µM, first compound 10 µM
[7] = second compound 0.1 µM, first compound 0.0316 µM
[8] = second compound 0.1 µM, first compound 0.1 µM
[9] = second compound 0.1 µM, first compound 0.316 µM
[10] = second compound 0.1 µM, first compound 1 µM
[11] = second compound 0.1 µM, first compound 3.16 µM
[12] = second compound 0.1 µM, first compound 10 µM
[13] = second compound 0.316 µM, first compound 0.0316 µM
[14] = second compound 0.316 µM, first compound 0.1 µM
[15] = second compound 0.316 µM, first compound 0.316 µM
[16] = second compound 0.316 µM, first compound 1 µM
[17] = second compound 0.316 µM, first compound 3.16 µM
[18] = second compound 0.316 µM, first compound 10 µM
[19] = second compound 1 µM, first compound 0.0316 µM
[20] = second compound 1 µM, first compound 0.1 µM
[21] = second compound 1 µM, first compound 0.316 µM
[22] = second compound 1 µM, first compound 1 µM
[23] = second compound 1 µM, first compound 3.16 µM
[24] = second compound 1 µM, first compound 10 µM
[25] = second compound 3.16 µM, first compound 0.0316 µM
[26] = second compound 3.16 µM, first compound 0.1 µM
[27] = second compound 3.16 µM, first compound 0.316 µM
[28] = second compound 3.16 µM, first compound 1 µM
[29] = second compound 3.16 µM, first compound 3.16 µM
[30] = second compound 3.16 µM, first compound 10 µM
[31] = second compound 10 µM, first compound 0.0316 µM
[32] = second compound 10 µM, first compound 0.1 µM
[33] = second compound 10 µM, first compound 0.316 µM
[34] = second compound 10 µM, first compound 1 µM
[35] = second compound 10 µM, first compound 3.16 µM
[36] = second compound 10 µM, first compound 10 µM

CC1COCCN1c1cc(C2(O)CC3CCC(C2)O3)c2cnn(-c3ccn[nH]3)c2n1 (centres undefined) + Cc1[nH]c2ccc(F)cc2c1-c1nc2c3cccnc3c3ncccc3c2[nH]1
IC50 (second compound 0.0316 µM): 339 nM
IC50 (second compound 0.1 µM): 352 nM
IC50 (second compound 0.316 µM): 282 nM
IC50 (second compound 1 µM): 210 nM
IC50 (second compound 3.16 µM): < 31.6 nM
IC50 (second compound 10 µM): < 31.6 nM
viability, T/C [1]: 114%
viability, T/C [2]: 103%
viability, T/C [3]: 51.9%
viability, T/C [4]: 16.9%
viability, T/C [5]: 12.2%
viability, T/C [6]: 8.69%
viability, T/C [7]: 113%
viability, T/C [8]: 94.9%
viability, T/C [9]: 54%
viability, T/C [10]: 18%
viability, T/C [11]: 13.2%
viability, T/C [12]: 7.58%
viability, T/C [13]: 122%
viability, T/C [14]: 85%
viability, T/C [15]: 47.8%
viability, T/C [16]: 19.7%
viability, T/C [17]: 13.3%
viability, T/C [18]: 9.21%
viability, T/C [19]: 79.1%
viability, T/C [20]: 67.4%
viability, T/C [21]: 40.7%
viability, T/C [22]: 16.6%
viability, T/C [23]: 13.3%
viability, T/C [24]: 8.26%
viability, T/C [25]: 31.5%
viability, T/C [26]: 17.9%
viability, T/C [27]: 13.5%
viability, T/C [28]: 11.2%
viability, T/C [29]: 6.29%
viability, T/C [30]: 1.15%
viability, T/C [31]: 39%
viability, T/C [32]: 18.9%
viability, T/C [33]: 18.6%
viability, T/C [34]: 9.83%
viability, T/C [35]: 11.4%
viability, T/C [36]: 3.18%

COc1ccc([C@@H](O)c2cc(-c3ncnc4cc(N5CCOCC5)ccc34)c(F)cc2Cl)nn1 + CN(C)c1ccc(Nc2c3ccc(NC(=O)CCN4CCCC4)cc3nc3cc(NC(=O)CCN4CCCC4)ccc23)cc1
IC50 (second compound 0.0316 µM): > 10000 nM
IC50 (second compound 0.1 µM): > 10000 nM
IC50 (second compound 0.316 µM): > 10000 nM
IC50 (second compound 1 µM): > 10000 nM
IC50 (second compound 3.16 µM): > 10000 nM
IC50 (second compound 10 µM): > 10000 nM
viability, T/C [1]: 106%
viability, T/C [2]: 103%
viability, T/C [3]: 106%
viability, T/C [4]: 105%
viability, T/C [5]: 91.9%
viability, T/C [6]: 74.5%
viability, T/C [7]: 107%
viability, T/C [8]: 111%
viability, T/C [9]: 100%
viability, T/C [10]: 108%
viability, T/C [11]: 95.6%
viability, T/C [12]: 71.5%
viability, T/C [13]: 109%
viability, T/C [14]: 101%
viability, T/C [15]: 104%
viability, T/C [16]: 99.7%
viability, T/C [17]: 93%
viability, T/C [18]: 70.7%
viability, T/C [19]: 103%
viability, T/C [20]: 101%
viability, T/C [21]: 108%
viability, T/C [22]: 111%
viability, T/C [23]: 97.6%
viability, T/C [24]: 78.9%
viability, T/C [25]: 104%
viability, T/C [26]: 99.3%
viability, T/C [27]: 106%
viability, T/C [28]: 102%
viability, T/C [29]: 90.5%
viability, T/C [30]: 83.3%
viability, T/C [31]: 110%
viability, T/C [32]: 93.6%
viability, T/C [33]: 98.5%
viability, T/C [34]: 97.7%
viability, T/C [35]: 77%
viability, T/C [36]: 64.2%
